Target: T1, human calcium-sensing receptor (CaSR) (Homo sapiens, UniProt P41180)
T1 construct: expressed in transfected cells; host or cells: CHO cells (CHO/hCaSR)
T1 sequence (P41180 20-1078): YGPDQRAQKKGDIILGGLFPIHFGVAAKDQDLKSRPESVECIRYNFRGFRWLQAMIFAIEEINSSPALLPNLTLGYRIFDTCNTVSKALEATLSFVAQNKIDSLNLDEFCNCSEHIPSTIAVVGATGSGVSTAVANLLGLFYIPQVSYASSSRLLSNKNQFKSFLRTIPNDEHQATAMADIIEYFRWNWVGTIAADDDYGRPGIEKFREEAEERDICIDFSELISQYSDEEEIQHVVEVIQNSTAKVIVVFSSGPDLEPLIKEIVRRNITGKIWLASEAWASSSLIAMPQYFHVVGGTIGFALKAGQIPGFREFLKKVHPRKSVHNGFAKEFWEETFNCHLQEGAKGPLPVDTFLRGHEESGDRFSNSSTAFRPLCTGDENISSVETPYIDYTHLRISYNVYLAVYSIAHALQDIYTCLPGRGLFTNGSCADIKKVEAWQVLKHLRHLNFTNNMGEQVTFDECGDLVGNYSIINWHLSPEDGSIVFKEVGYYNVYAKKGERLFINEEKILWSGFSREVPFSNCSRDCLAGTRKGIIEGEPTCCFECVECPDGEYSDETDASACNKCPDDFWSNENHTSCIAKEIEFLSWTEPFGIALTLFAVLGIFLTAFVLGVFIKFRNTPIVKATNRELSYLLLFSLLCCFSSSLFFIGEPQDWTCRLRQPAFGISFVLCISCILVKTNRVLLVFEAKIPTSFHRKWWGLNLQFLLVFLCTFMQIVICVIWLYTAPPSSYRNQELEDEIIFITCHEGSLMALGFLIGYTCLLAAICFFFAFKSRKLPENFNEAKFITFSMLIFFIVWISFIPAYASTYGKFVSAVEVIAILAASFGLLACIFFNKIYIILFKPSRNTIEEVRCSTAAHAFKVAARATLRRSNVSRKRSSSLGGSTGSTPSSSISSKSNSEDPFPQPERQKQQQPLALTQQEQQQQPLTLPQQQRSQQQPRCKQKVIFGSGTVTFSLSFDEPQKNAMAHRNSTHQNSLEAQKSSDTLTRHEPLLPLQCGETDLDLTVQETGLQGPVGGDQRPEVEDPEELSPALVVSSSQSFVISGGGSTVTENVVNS
Assay: Inhibitory activity on calcium-sensing receptor (CaSR) using intracellular calcium increase as an indicator (FLIPR, CHO/hCaSR)
Type: cell-based
Settings: CHO/hCaSR cells; intracellular Ca increase induced by CaCl2; test compound 1.05 to 10,000 nM
Procedure: Evaluation of inhibitory activity on calcium-sensing receptor (CaSR) using intracellular calcium increase as an indicator
The preparation which is prepared by adding CHO/hCaSR to F12 medium (manufactured by Invitrogen) containing 10% fetal bovine serum to have 2×10^5 cells/mL was applied to a 384-well in an amount of 50 μL/well, and then incubated overnight in a CO2 incubator. The culture supernatant was completely removed, the assay buffer (20 mM HEPES, HBSS (Ca and Mg free) containing 2.5 mM probenecid, pH 7.4) containing Calcium 3 (manufactured by Molecular Devices), i.e., a fluorescent intracellular calcium indicator, was added thereto in an amount of 25 μL/well, and the mixture was maintained for 1 hour in a CO2 incubator. Meanwhile, Calcium 3 was prepared according to the protocol enclosed in FLIPR Calcium 3 Assay Kit (manufactured by Molecular Devices). After maintaining it for 1 hour, a solution in which the test compound is prepared to have 2.1 to 20,000 nM (final concentration of 1.05 to 10,000 nM) by an assay buffer was added thereto in an amount of 25 μL/well, and maintained for 15 minutes in a CO2 incubator. Then, the CaCl2 solution prepared to have […] by using the assay buffer was added in an amount of 25 μL/well, and the resulting intracellular Ca increase (i.e., fluorescence intensity) was measured over time using a fluorescence imaging plate reader (FLIPR, manufactured by Molecular Devices). From the data obtained, the difference between the fluorescence intensity before the addition of CaCl2 solution and the maximum fluorescence intensity after the addition of CaCl2 solution was calculated, and the 50% inhibition concentration (IC50) of the test compound was obtained.

SMILES	IC50
Cc1cc(-c2ccccc2[C@@H](C)OC[C@H](O)CNC2(CC3Cc4ccccc4C3)CC2)ccc1C(=O)O [Example 12, 2′-[(1R)-1-{[(2R)-3-{[1-(2,3-Dihydro-1H-inden-2-ylmethyl)cyclopropyl]amino}-2-hydroxypropyl]oxy}ethyl]-3-methylbiphenyl-4-carboxylic acid]	≤ 2200 nM
C[C@@H](OC[C@H](O)CNC(C)(C)CC1Cc2ccccc2C1)c1ccccc1CCC(=O)O [Example 1, 3-{2-[(1R)-1-{[(2R)-3-{[1-(2,3-Dihydro-1H-inden-2-yl)-2-methylpropan-2-yl]amino}-2-hydroxypropyl]oxy}ethyl]phenyl}propanoic acid]	≤ 2500 nM
C[C@@H](OC[C@H](O)CNC(C)(C)CC1Cc2ccccc2C1)c1ccccc1CCCCCCC(=O)O [Example 68]	≤ 2220 nM
CCC[C@@H](OC[C@H](O)CNC(C)(C)CC1Cc2ccccc2C1)c1ccc(Cl)cc1CCC(=O)O [Example 77]	≤ 2190 nM
CC[C@@H](OC[C@H](O)CNC(C)(C)CC1Cc2ccccc2C1)c1cc(F)ccc1CCC(=O)O [Example 38]	≤ 2330 nM
CCOc1ccc(CCCCC(=O)O)c([C@@H](C)OC[C@H](O)CNC(C)(C)CC2Cc3ccccc3C2)c1 [Example 58]	≤ 2150 nM
C[C@@H](OC[C@H](O)CNC(C)(C)CC1Cc2ccccc2C1)c1cccc(C(F)(F)F)c1CCC(=O)O [Example 10, 3-{2-[(1R)-1-{[(2R)-3-{[1-(2,3-Dihydro-1H-inden-2-yl)-2-methylpropan-2-yl]amino}-2-hydroxypropyl]oxy}ethyl]-6-(trifluoromethyl)phenyl}propanoic acid]	≤ 2170 nM
CC[C@@H](OC[C@H](O)CNC(C)(C)CC1Cc2ccccc2C1)c1cccc(Cl)c1CCC(=O)O [Example 75]	≤ 2250 nM
C[C@@H](OC[C@H](O)CNC(C)(C)CC1Cc2ccccc2C1)c1ccccc1CCOCC(=O)O [Example 83, (2-{2-[(1R)-1-{[(2R)-3-{[1-(2,3-Dihydro-1H-inden-2-yl)-2-methylpropan-2-yl]amino}-2-hydroxypropyl]oxy}ethyl]phenyl}ethoxy)acetic acid]	≤ 2340 nM
C[C@@H](OC[C@H](O)CNC(C)(C)CC1Cc2ccccc2C1)c1ccc(C#N)cc1CCC(=O)O [Example 25]	≤ 2370 nM
C[C@@H](OC[C@H](O)CNC(C)(C)CC1Cc2ccccc2C1)c1cccc(F)c1CCCCC(=O)O [Example 48]	≤ 2270 nM
CC(OC[C@H](O)CNC(C)(C)CC1Cc2ccccc2C1)c1c(CCC(=O)O)ccc(F)c1F (some centres unmarked) [Example 36]	≤ 2310 nM
CC[C@@H](OC[C@H](O)CNC(C)(C)CC1Cc2ccccc2C1)c1ccc(C)cc1CCC(=O)O [Example 40]	≤ 2350 nM
CC[C@@H](OC[C@H](O)CNC(C)(C)CC1Cc2ccccc2C1)c1cc(F)c(C)cc1CCCCC(=O)O [Example 61]	≤ 2140 nM
CCC[C@@H](OC[C@H](O)CNC(C)(C)CC1Cc2ccccc2C1)c1ccc(C)cc1CCC(=O)O [Example 54]	≤ 2280 nM
C[C@@H](OC[C@H](O)CNC(C)(C)CC1Cc2ccccc2C1)c1cc(F)cc(F)c1CCC(=O)O [Example 27]	≤ 2310 nM
CCC[C@@H](OC[C@H](O)CNC(C)(C)CC1Cc2ccccc2C1)c1cccc(Cl)c1CCC(=O)O [Example 78]	≤ 2190 nM
C[C@@H](OC[C@H](O)CNC(C)(C)CC1Cc2ccccc2C1)c1cc(Cl)ccc1CCC(=O)O [Example 70]	≤ 2320 nM
CCC[C@@H](OC[C@H](O)CNC(C)(C)CC1Cc2ccccc2C1)c1cccc(F)c1CCC(=O)O [Example 53]	≤ 2270 nM
C[C@@H](OC[C@H](O)CNC(C)(C)CC1Cc2ccccc2C1)c1cc(C(F)(F)F)ccc1CCCCC(=O)O [Example 50]	≤ 2050 nM
CCC[C@@H](OC[C@H](O)CNC(C)(C)CC1Cc2ccccc2C1)c1cc(F)ccc1CCC(=O)O [Example 51]	≤ 2270 nM
CC(C)(CC1Cc2ccccc2C1)NC[C@@H](O)CO[C@@H](c1ccccc1CCC(=O)O)C1CC1 [Example 29]	≤ 2360 nM
COc1ccc([C@@H](C)OC[C@H](O)CNC(C)(C)CC2Cc3ccccc3C2)c(CCC(=O)O)c1 [Example 16]	≤ 2340 nM
C[C@@H](OC[C@H](O)CNC(C)(C)CC1Cc2ccccc2C1)c1cccc(OC(F)F)c1CCC(=O)O [Example 66]	≤ 2180 nM

More lines, now with the values ahead:

IC50	SMILES
≤ 2210 nM	CCC[C@@H](OC[C@H](O)CNC(C)(C)CC1Cc2ccccc2C1)c1cccc(OC)c1CCC(=O)O [Example 55]
≤ 2280 nM	C[C@@H](OC[C@H](O)CNC(C)(C)CC1Cc2ccccc2C1)c1ccccc1CCCCCC(=O)O [Example 67]
≤ 2270 nM	C[C@@H](OC[C@H](O)CNC(C)(C)CC1Cc2ccccc2C1)c1ccc(F)cc1CCCCC(=O)O [Example 44]
≤ 2420 nM	Cc1cccc(CCC(=O)O)c1C(C)OC[C@H](O)CNC(C)(C)CC1Cc2ccccc2C1 (some centres unmarked) [Example 32]
≤ 2200 nM	Cc1cc(CCCCC(=O)O)c([C@@H](C)OC[C@H](O)CNC(C)(C)CC2Cc3ccccc3C2)cc1F [Example 23]
≤ 2350 nM	CCC[C@@H](OC[C@H](O)CNC(C)(C)CC1Cc2ccccc2C1)c1ccccc1CCC(=O)O [Example 21]
≤ 2270 nM	CC[C@@H](OC[C@H](O)CNC(C)(C)CC1Cc2ccccc2C1)c1cc(F)c(C)cc1CCC(=O)O [Example 60]
≤ 2170 nM	C[C@@H](OC[C@H](O)CNC(C)(C)CC1Cc2ccccc2C1)c1ccc(C(F)(F)F)cc1CCC(=O)O [Example 11, 3-{2-[(1R)-1-{[(2R)-3-{[1-(2,3-Dihydro-1H-inden-2-yl)-2-methylpropan-2-yl]amino}-2-hydroxypropyl]oxy}ethyl]-5-(trifluoromethyl)phenyl}propanoic acid]
≤ 2310 nM	C[C@@H](OC[C@H](O)CNC(C)(C)CC1Cc2ccccc2C1)c1cc(F)c(F)cc1CCC(=O)O [Example 26]
≤ 2180 nM	C[C@@H](OC[C@H](O)CNC(C)(C)CC1Cc2ccccc2C1)c1cc(F)c(F)cc1CCCCC(=O)O [Example 30]
≤ 2400 nM	C[C@@H](OC[C@H](O)CNC(C)(C)CC1Cc2ccccc2C1)c1c(F)cccc1CCC(=O)O [31 low polarity, 3-{2-[(1R)-1-{[(2R)-3-{[1-(2,3-dihydro-1H-inden-2-yl)-2-methylpropan-2-yl]amino}-2-hydroxypropyl]oxy}ethyl]-3-fluorophenyl}propanoic acid]
≤ 2320 nM	CC(OC[C@H](O)CNC(C)(C)CC1Cc2ccccc2C1)c1c(Cl)cccc1CCC(=O)O (some centres unmarked) [Example 33]
≤ 2400 nM	C[C@@H](OC[C@H](O)CNC(C)(C)CC1Cc2ccccc2C1)c1ccc(F)cc1CCC(=O)O [Example 8, 3-{2-[(1R)-1-{[(2R)-3-{[1-(2,3-Dihydro-1H-inden-2-yl)-2-methylpropan-2-yl]amino}-2-hydroxypropyl]oxy}ethyl]-5-fluorophenyl}propanoic acid]
≤ 2330 nM	CC[C@@H](OC[C@H](O)CNC(C)(C)CC1Cc2ccccc2C1)c1cccc(F)c1CCC(=O)O [Example 39]
